pIC50: −log10 of the molar value.
What was measured:
[1] = Cytotoxicity against mouse C26 cells assessed as inhibition of cell proliferation after 48 hrs by MTT assay; type: functional, cell-based; conditions: C26, 48 h
A549 [2] = test: Cytotoxicity against human A549 cells assessed as inhibition of cell proliferation after 48 hrs by MTT assay; type: functional, cell-based; conditions: A549, 48 h
MCF7 = test: Cytotoxicity against human MCF7 cells assessed as inhibition of cell proliferation after 48 hrs by MTT assay; type: functional, cell-based; conditions: MCF7, 48 h
A2780 = test: Cytotoxicity against human A2780 cells assessed as inhibition of cell proliferation after 48 hrs by MTT assay; type: functional, cell-based; conditions: A2780, 48 h
A549 [3] = test: Induction of apoptosis in human A549 cells assessed as early apoptotic cells at 10 uM after 24 hrs by Annexin V-FITC/propidium iodide staining based flow cytometry (reference value: 0.886%); type: functional
A549 [4] = test: Induction of apoptosis in human A549 cells assessed as late apoptotic cells at 5 uM after 24 hrs by Annexin V-FITC/propidium iodide staining based flow cytometry (reference value: 0.462%); type: functional
A549 [5] = test: Induction of apoptosis in human A549 cells after 24 hrs by Annexin V-FITC/propidium iodide staining based flow cytometry; type: functional, cell-based
A549 [6] = test: Induction of apoptosis in human A549 cells assessed as live cells at 10 uM after 24 hrs by Annexin V-FITC/propidium iodide staining based flow cytometry (reference value: 98.4%); type: functional
Calf thymus DNA [7] = test: Binding affinity to calf thymus DNA by UV-vis absorption spectrophotometric method; type: nucleic-acid assay; conditions: Bos taurus
A549 [8] = test: Induction of apoptosis in human A549 cells assessed as live cells at 5 uM after 24 hrs by Annexin V-FITC/propidium iodide staining based flow cytometry (reference value: 98.4%); type: functional
A549 [9] = test: Induction of apoptosis in human A549 cells assessed as necrotic cells at 5 uM after 24 hrs by Annexin V-FITC/propidium iodide staining based flow cytometry (reference value: 0.231%); type: functional
A549 [10] = test: Induction of apoptosis in human A549 cells assessed as early apoptotic cells at 5 uM after 24 hrs by Annexin V-FITC/propidium iodide staining based flow cytometry (reference value: 0.886%); type: functional
A549 [11] = test: Induction of apoptosis in human A549 cells assessed as necrotic cells at 10 uM after 24 hrs by Annexin V-FITC/propidium iodide staining based flow cytometry (reference value: 0.231%); type: functional
A549 [12] = test: Induction of apoptosis in human A549 cells assessed as late apoptotic cells at 10 uM after 24 hrs by Annexin V-FITC/propidium iodide staining based flow cytometry (reference value: 0.462%); type: functional
Calf thymus DNA [13] = test: Binding affinity to calf thymus DNA by fluorescence spectroscopic method; type: nucleic-acid assay; conditions: Bos taurus
A549 [14] = test: Induction of apoptosis in human A549 cells assessed as live cells at 1 uM after 24 hrs by Annexin V-FITC/propidium iodide staining based flow cytometry (reference value: 98.4%); type: functional
A549 [15] = test: Induction of apoptosis in human A549 cells assessed as early apoptotic cells at 1 uM after 24 hrs by Annexin V-FITC/propidium iodide staining based flow cytometry (reference value: 0.886%); type: functional
A549 [16] = test: Induction of apoptosis in human A549 cells assessed as late apoptotic cells at 1 uM after 24 hrs by Annexin V-FITC/propidium iodide staining based flow cytometry (reference value: 0.462%); type: functional
A549 [17] = test: Induction of apoptosis in human A549 cells assessed as necrotic cells at 1 uM after 24 hrs by Annexin V-FITC/propidium iodide staining based flow cytometry (reference value: 0.231%); type: functional

| SMILES | pIC50 [1] | pIC50 (A549 [2]) | pIC50 (MCF7) | pIC50 (A2780) | other results |
| --- | --- | --- | --- | --- | --- |
| COc1cc(-c2cc(C(=O)NCCN(C)C)c3ccc4c(c3n2)CCCC4)cc(OC)c1OC | 4.94 | 4.84 | 5.25 | 4.96 | – |
| CC(=O)Nc1ccc(-c2cc(C(=O)NCCN(C)C)c3ccc4c(c3n2)CCCC4)cc1 | 5.41 | 5.72 | 5.57 | 5.73 | Activity (A549 [3]): 46.4%; Activity (A549 [4]): 7.58%; Activity (A549 [5]): Dose-dependent effect; Activity (A549 [6]): 53%; Kb (Calf thymus DNA [7]): 2 ×10⁴ No_unit; Activity (A549 [8]): 63.7%; Activity (A549 [9]): 1.22%; Activity (A549 [10]): 27.5%; Activity (A549 [11]): 0.34%; Activity (A549 [12]): 0.34% |
| COc1ccc(-c2cc(C(=O)NCCN(C)C)c3ccc4c(c3n2)CCCC4)cc1OC | 4.90 | 4.81 | 4.86 | 4.94 | – |
| Cc1ccc(-c2cc(C(=O)NCCN(C)C)c3ccc4ccccc4c3n2)cc1 | 5.44 | 5.23 | 5.82 | 5.04 | Activity (A549 [3]): 24.6%; Activity (A549 [4]): 0.18%; Activity (A549 [5]): Dose-dependent effect; Activity (A549 [6]): 75.1%; Kb (Calf thymus DNA [13]): 8.1 ×10⁴ No_unit; Kb (Calf thymus DNA [7]): 2.2 ×10⁴ No_unit; Activity (A549 [8]): 94.1%; Activity (A549 [9]): 0.2%; Activity (A549 [10]): 5.48%; Activity (A549 [11]): 0.22%; Activity (A549 [12]): 0.08% |
| Cc1ccc(-c2cc(C(=O)NCCN(C)C)c3ccc4c(c3n2)CCCC4)cc1 | 5.63 | 5.41 | 5.64 | 5.67 | Activity (A549 [3]): 44.4%; Activity (A549 [4]): 0.093%; Activity (A549 [5]): Dose-dependent effect; Activity (A549 [6]): 54.9%; Kb (Calf thymus DNA [13]): 6.4 ×10⁴ No_unit; Kb (Calf thymus DNA [7]): 1.75 ×10⁴ No_unit; Activity (A549 [8]): 97.8%; Activity (A549 [9]): 1.02%; Activity (A549 [10]): 1.13%; Activity (A549 [11]): 0.01%; Activity (A549 [12]): 0.72% |
| COc1ccc(-c2cc(C(=O)NCCN(C)C)c3ccc4c(c3n2)CCCC4)cc1 | 5.14 | 5.30 | 5.20 | 5.78 | – |
| CC(=O)Nc1ccc(-c2cc(C(=O)NCCN(C)C)c3ccc4ccccc4c3n2)cc1 | 5.11 | 5.10 | 5.39 | 5.03 | – |
| CN(C)CCNC(=O)c1cc(-c2ccccn2)nc2c1ccc1ccccc12 | 4.41 | 4.25 | < 4.00 | 4.21 | – |
| COc1ccc(-c2cc(C(=O)NCCN(C)C)c3ccc4ccccc4c3n2)cc1 | 5.62 | 4.70 | 4.43 | 4.85 | Kb (Calf thymus DNA [13]): 7.4 ×10⁴ No_unit; Kb (Calf thymus DNA [7]): 2 ×10⁴ No_unit |
| CN(C)CCNC(=O)c1cc(-c2ccccc2)nc2c1ccc1ccccc12 | 4.45 | 4.18 | 4.48 | 4.14 | – |
| CN(C)CCNC(=O)c1cc(-c2ccc(F)cc2)nc2c3c(ccc12)CCCC3 | 4.74 | 4.87 | 4.89 | 5.21 | – |
| CN(C)CCNC(=O)c1cc(-c2ccc(F)cc2)nc2c1ccc1ccccc12 | 5.28 | 4.73 | 4.78 | 4.84 | – |
| CN(C)CCNC(=O)c1cc(-c2ccccn2)nc2c3c(ccc12)CCCC3 | 4.30 | 4.22 | 4.78 | 4.83 | – |
| COc1cccc2c1C(=O)c1c(O)c3c(c(O)c1C2=O)C[C@@](O)(C(=O)CO)C[C@@H]3O[C@H]1C[C@H](N)[C@H](O)[C@H](C)O1 [DOXORUBICIN] | – | 6.12 | 6.30 | 6.91 | Activity (A549 [14]): 31%; Activity (A549 [15]): 2.19%; Activity (A549 [16]): 11.1%; Activity (A549 [17]): 55.8% |
